Assay results as given in paper PMC4907212, “Mucosal and blood-brain barrier transport kinetics of the plant N-alkylamide spilanthol using in vitro and in vivo models” (BMC Complementary and Alternative Medicine, 2016).
Like-named read-outs stand apart in the source and are kept apart here.

Columns and labels:
[1] = Caco-2 cell permeability assay (Transwell, ab and ba direction); type: in vitro ADME, human; settings: human; for Papp A→B at 120 min, 10 μg/ml / Papp B→A at 120 min, 10 μg/ml: mean ± SD, n = 2; for Papp A→B at 120 min, 10 μg/ml: read-out: apparent permeability coefficient (Papp), apical-to-basolateral; for Papp B→A at 120 min, 10 μg/ml: read-out: apparent permeability coefficient (Papp), basolateral-to-apical; for efflux ratio at 120 min, 10 μg/ml: read-out: efflux ratio (Papp,ba/Papp,ab)
Description: (§1) Caco-2 cells, originating from a human colorectal carcinoma were maintained in Dulbecco's modified Eagle's medium (DMEM) at 95 % humidity and 37 °C in an atmosphere of 5 % CO2, supplemented with 10 % (V/V) fetal bovine serum, 2 mM L-glutamine and 1 % non-essential amino acids (100x), 100 U/ml penicillin and 100 μg/ml streptomycin (all from Invitrogen/GIBCO, Ghent, Belgium). The Caco-2 cell intestinal model was used as a model for the gut mucosa to investigate the permeation of spilanthol. Caco-2 cells were seeded at a density of 2.6 · 10^5 cells/cm^2 cells for each Transwell (Corning Costar, New York, USA) membrane insert filter (0.4 μm pore size, 12 mm filter diameter) and cultivated in the described supplemented DMEM, also containing 100 units/ml penicillin and 100 μg/ml streptomycin. The medium was changed every second day. The cells were allowed to grow and differentiate for 21-29 days until monolayers were formed. Intact membranes/integrity of the monolayers were checked via the measurement of transepithelial electrical resistance (TEER) of the monolayers using the Millicell-ERS system (Millipore Corp., Bedford, MA, USA) before and after transport experiments. The experiment was performed in duplicate for each dose solution. Transport experiments were carried out in the apical-to-basolateral (ab) direction and in the basolateral-to-apical (ba) direction in Hanks' Balanced Salt solution, according to Hubatsch et al.. Two dose solutions of purified spilanthol at 10 μg/ml were tested, differing in solvent: 0.5 % ethanol (further indicated as DS1) and 0.5 % of a mixture of vitamin E-TPGS (33.3 %), ethanol (11.1 %), PEG 400 (33.3 %) and PG (22.2 %) (further indicated as DS2) dissolved in HBSS. Final volumes of 0.4 ml apically and 1.2 ml basolaterally were used for 12-mm filter supports during the transport experiment. Samples were taken at 15, 30, 60, 90 and 120 min from the acceptor (= receiver) compartment (basolateral to apical transport: 100 μl; apical to basolateral transport: 300 μl) and were immediately replaced by fresh HBSS. […] Quantification of spilanthol was conducted using the UPLC-MS^2 method as described below. The apparent permeability coefficient (Papp in cm/s) of spilanthol was calculated from a non-sink equation. From Fick's first law: J = - […] is the diffusion coefficient, J is the flux or transfer rate along the donor-to-receptor side, x is the distance from the donor compartment and C(x) is the concentration in the barrier at the coordinate x in the barrier), the following differential equation is derived: dMr(t)/dt = Papp × […])], in which Mr is the amount of substance in the receiver chamber, Papp is the apparent permeability coefficient (a product of distribution coefficient with diffusion coefficient divided by the barrier thickness), A is the cross-sectional area of the barrier, Cd is the donor concentration and Cr is the receiver concentration. This differential equation is the basis to calculate Papp values of compounds requiring sink, as well as non-sink conditions with different initial conditions to solve this equation. […] Non-linear curve fitting by minimisation of the sum of squared residuals (SSR) was used to obtain the Papp. The efflux ratio is calculated as Papp,ba/Papp,ab, while the uptake ratio is calculated as Papp,ab/Papp,ba.

Caco-2 cell monolayer = assay: as above; type: in vitro ADME, human
Description: as §1

[2] = set-up: method as in PMID 24055064; settings: source not stated; cited from earlier work

C/C=C/C=C\CC/C=C/C(=O)NCC(C)C [spilanthol, deca-2E,6Z,8E-trienoic acid isobutylamide]
Papp A→B at 120 min, 10 μg/ml ([1]; Caco-2, DS1 (10 μg/ml purified spilanthol, 0.5 % ethanol in HBSS)): 84.2 ×10⁻⁶ cm/s | Papp B→A at 120 min, 10 μg/ml ([1]; Caco-2, DS1): 102 ×10⁻⁶ cm/s | efflux ratio at 120 min, 10 μg/ml ([1]; Caco-2, DS1): 1.21 | Papp A→B at 120 min, 10 μg/ml ([1]; Caco-2, DS2 (10 μg/ml, 0.5 % vitamin E-TPGS/ethanol/PEG 400/PG mixture in HBSS)): 56.1 ×10⁻⁶ cm/s | Papp B→A at 120 min, 10 μg/ml ([1]; Caco-2, DS2): 52 ×10⁻⁶ cm/s | efflux ratio at 120 min, 10 μg/ml ([1]; Caco-2, DS2): 0.93 | recovery at 120 min, 10 μg/ml ([1]; Caco-2, donor plus acceptor at last time point (120 min), read-out: mass balance, total recovery): 105 to 121% | uptake ratio (Papp,ab/Papp,ba) (Caco-2 cell monolayer; DS1): 0.82 | amount of spilanthol permeated, apical-to-basolateral (Caco-2 cell monolayer; DS1, after 120 min): 3.20 µg | amount of spilanthol permeated, basolateral-to-apical (Caco-2 cell monolayer; DS1, after 120 min): 3.86 µg | percentage of applied spilanthol permeated, apical-to-basolateral (Caco-2 cell monolayer; DS1, after 120 min): 79.8% | percentage of applied spilanthol permeated, basolateral-to-apical (Caco-2 cell monolayer; DS1, after 120 min): 32.1% | uptake ratio (Papp,ab/Papp,ba) (Caco-2 cell monolayer; DS2): 1.08 | amount of spilanthol permeated, apical-to-basolateral (Caco-2 cell monolayer; DS2, after 120 min): 2.47 µg | amount of spilanthol permeated, basolateral-to-apical (Caco-2 cell monolayer; DS2, after 120 min): 2.49 µg | percentage of applied spilanthol permeated, apical-to-basolateral (Caco-2 cell monolayer; DS2, after 120 min): 64.3% | percentage of applied spilanthol permeated, basolateral-to-apical (Caco-2 cell monolayer; DS2, after 120 min): 21.6% | percentage of applied DS permeated, apical-to-basolateral (absorptive direction) (Caco-2 cell monolayer; after 120 min, DS1 and DS2): 64–80% | difference in Papp values between apical-to-basolateral and basolateral-to-apical direction (Caco-2 cell monolayer; both dose solutions): less than 2 fold | LogP [2]: 3.39
